Where a SMILES comes first, the peptide text is derived from it.
Key:
[1] = system: various cancer cell lines; assay: Anticancer effect of ACP52C in various carcinomas (GI50, FIG. 1); assay type: cell-based
Description: FIG. 1 illustrates GI50 values dependent upon ACP52C treatment in various cancer cell lines.
The selected peptide binds to CP2c and inhibits the formation of a transcription factor complex including CP2c (CP2c homotetramer and CP2c/CP2b/PIAS1 heterohexamer), thereby indirectly interfering with DNA binding of CP2c.

[2] = system: cell cycle (G2/M, subG1); assay: FACS cell cycle analysis after cell cycle synchronization; assay type: cell-based
Description: The growth inhibitory and cell death-inducing efficacy of ACP52C was confirmed by FACS analysis by treating cells with ACPS2C after synchronizing the cell cycle to the G1/S phase through a double thymidine block method.

[3] = system: CHK1/2, CDC25c, CDK1, cyclin B, caspases; assay: Expression of cell cycle and apoptosis marker proteins after ACP52C treatment; assay type: cell-based
[4] = Half-life in solution containing 10% serum by HPLC; assay type: in vitro ADME; conditions: HPLC after removing serum proteins
Protocol: (§2) The ACP52C half-life in the solution containing serum was analyzed by HPLC (model: UHPLC DIONEX Ultimate 3000; Flow=1.000 ml/min) after incubation of ACP52C in the solution containing 10% serum for various times and then removing serum proteins with Centricon (Mw10,000) before HPLC analysis. […] Meanwhile, after injecting ACP52C into the mouse via tail vein, blood samples were extracted over time and the degree of ACP52C degradation in the blood samples was analyzed by HPLC.

[5] = Degradation in mouse blood samples after tail vein injection, HPLC; assay type: in vivo
Protocol: as §2

[6] = ELISA for antibody formation in sera of injected rabbits (immunogenicity); conditions: rabbit, in vivo
Description: To verify this, immunogenicity of ACP52CG and ACP52CK was directly tested in the process of deriving the final new drug candidate. Since the final candidate material might be a C-16 palmitoyl acid-conjugated ACP52C peptide, which is not different with ACP52CG and ACP52CK in terms of chemical composition, it was decided to analyze whether antibodies were formed on ACP52CG and ACP52CK. […] Therefore, it was concluded that the final candidate material (ACP52CGK) would also not show immunogenicity in the human body (FIG. 21).

[7] = Preliminary repeated toxicity test of ACP52C; assay type: in vivo, mouse; conditions: 100 mg/kg and 1000 mg/kg repeatedly administered twice
Protocol: A repeated toxicity test for the in vivo administration of ACP52CGK was conducted using female and male mice. […] As a full-scale experiment, after intravenous infusion of ACP52CGK for 28 days at 3-day intervals into the solvent group and high-dose group (100 mg/Kg) of 6 males and females each, the weight change, drinking water intake, and main histological analysis of organs, organ weight, hematological tests and blood biochemical tests were analyzed.

[8] = system: lung cancer cell lines (A549, PC9, KCL22); assay: Immunoblot of CP2c pathway proteins in lung cancer cell lines treated with ACP52C; assay type: cell-based
Description: (§1) Since MDM2p60 is known to be a protein in which the C-terminal region of MDM2p90 comprising sites (S386, S395, and S407) phosphorylated by ATM is deleted, it was speculated that the MDM2 degradation would not be properly regulated by ACP52C treatment (FIG. 29, FIGS. 30a to 30c).

[9] = system: A549 cell line in which MDM2 overexpression is chronically induced; assay: MTT assay in A549 cell line with chronically induced MDM2 overexpression; assay type: cell-based; conditions: doxycycline for 3 weeks, MDM2p90 overexpressed
Description: as §1

[10] = mouse, in vivo
Protocol: To analyze the in vivo half-life of ACP52CGK, Cy5-labeled ACP52CGK was injected into the tail vein of the mouse, and then the fluorescence intensity remaining in the mouse body was measured over time by live imaging process.

[11] = ACP52C-induced G2/M phase arrest

For `CC(=O)N[C@@H](CC(N)=O)C(=O)N[C@@H](Cc1ccc(O)cc1)C(=O)N1CCC[C@H]1C(=O)N[C@@H](CCC(N)=O)C(=O)N[C@@H](CCCNC(=N)N)C(=O)N1CCC[C@H]1C(=O)N[C@@H](CS)C(=O)N[C@@H](CCCNC(=N)N)C(=O)NCC(=O)N[C@@H](CC(=O)O)C(=O)N[C@@H](CCCCN)C(=O)NCC(=O)N1CCC[C@H]1C(=O)N[C@@H](CC(=O)O)C(=O)N[C@@H](CS)C(N)=O` [ACP52C] (Ac-NYPQRPCRGDKGPDC-NH2), the “growth inhibition and cell death efficacy” value [1] was “cancer cell-specific growth inhibition and cell death efficacy”, the “cell cycle effect (FACS)” value ([2]; cell line synchronized to G2/M phase with thymidine/nocodazole) was “the cell cycle was arrested at the subG1 phase and cell death was induced” and the “cell cycle effect (FACS)” value ([2]; cells synchronized to G1/S phase by double thymidine block) was “cell cycle arrest at the G2/M phase”. For the same compound, the “cell death induction mechanism” value [3] was “apoptosis via activation of caspases”, the “expression of CDC25c, CDK1, and cyclin B proteins” value [3, 11] was “decreased expression of CDC25c, CDK1, and cyclin B proteins” and the “expression of CHK1/2 protein” value [3, 11] was “increased expression of CHK1/2 protein”. For the same compound, the “degradation in solution containing 10% serum” value [4] was “not degraded at all until 24 hours”, the “half-life in mouse blood” value [5] was “about 2 hours” and the “immune response of sera from rabbits injected with ACP52CG and ACP52CK three times (ELISA)” value [6] was “did not induce immune responses”. The “liver toxicity or adverse effect on major organs” value [7] was “any liver toxicity or adverse effect on major organs was not observed”, the survival [7] was “all the mice survived” and the “expression of MDM2 (p90 and p60)” value [8] was “no decrease in the expression”. The “expression of YY1” value [8] was “decreased”, the “expression of p53, p63 and p73” value [8] was “did not show any change” and the “induction of cell death” value [9] was “cell death was induced from the second week”. For the same compound, the “presence in cancer tissues after injection” value [10] was “observed in cancer tissues even 5 days after injection”.

Source: patent US12605453B2, “CP2C-targeting peptide-based anticancer agent” (Industry-University Cooperation Foundation Hanyang …, priority 2019, dated 2026)
